Marks after values point to notes of the source that are not given here.
Columns and labels:
COX-2 = molecular target: T1, COX-2 (Homo sapiens, UniProt P35354); assay: COX-2 inhibition, COX (ovine/human) inhibitor screening assay kit; format: biochemical; settings: for COX-2 inhibitory activity (in words): up to 50 µM final concentration
T1 construct: purchased Cayman Chemicals (bought through Sigma-Aldrich) 560131
T1 sequence (P35354 18-604): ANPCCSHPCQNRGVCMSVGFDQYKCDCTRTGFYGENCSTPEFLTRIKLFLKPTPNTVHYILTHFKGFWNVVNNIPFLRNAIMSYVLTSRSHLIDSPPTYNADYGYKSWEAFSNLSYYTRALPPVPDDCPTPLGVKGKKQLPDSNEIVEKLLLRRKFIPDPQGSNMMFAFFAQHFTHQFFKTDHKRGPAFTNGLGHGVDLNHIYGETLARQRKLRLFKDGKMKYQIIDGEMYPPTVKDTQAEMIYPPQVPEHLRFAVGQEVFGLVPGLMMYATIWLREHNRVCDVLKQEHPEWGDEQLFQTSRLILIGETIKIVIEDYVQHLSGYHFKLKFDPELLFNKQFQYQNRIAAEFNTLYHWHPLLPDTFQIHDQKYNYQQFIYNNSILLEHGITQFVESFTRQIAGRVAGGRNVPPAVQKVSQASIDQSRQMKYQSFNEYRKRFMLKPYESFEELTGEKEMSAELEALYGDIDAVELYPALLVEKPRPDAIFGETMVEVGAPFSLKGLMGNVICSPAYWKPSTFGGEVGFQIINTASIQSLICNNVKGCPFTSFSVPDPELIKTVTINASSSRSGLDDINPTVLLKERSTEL
Experimental: Cell culture reagents were purchased from Euroclone (Milan, Italy). COX (ovine/human) inhibitor screening assay kit (Catalog No. 560131, Cayman Chemicals, Ann Arbor, MI, USA) was purchased from Sigma-Aldrich, Burlington, MA, USA. […] The other reagents were purchased from Sigma-Aldrich, Burlington, MA, USA.
The COX-1/2 inhibition screening experiments were carried out according to the manufacturer’s instructions. The plate was incubated for 60 min at r.t. under shaking and read with the Tecan Infinite 200 Microplate Reader at λ = 405 nm.
The graph between percent inhibition of the enzyme and corresponding concentration of the compound provided IC50 values for the probe compounds.

[1] = Fluorescence property measurements (absorption/emission spectra); format: physicochemical; design: Stokes Shift: unit not given here
Experimental: The λabs and λem, of the target compounds were measured in aqueous solution (phosphate-buffered saline solution, PBS) at the concentration of 10^−5 M (Table 1).
Fluorescence spectra of all target compounds were determined in PBS and EtOH solutions (Table 1) with a Tecan Infinite 200 Microplate Reader. In all experiments, the excitation and the emission bandpass were set at λ = 5 nm. The emission spectra were obtained from λ = 280 to 850 nm, with excitation set at the appropriate excitation wavelength. Absorption spectra were recorded with a Shimadzu UV-1800 spectrophotometer.

SKOV-3 xenograft tumors = assay: NIR fluorescence imaging / biodistribution in SKOV-3 s.c. xenograft models; format: in vivo, NSG mice; settings: SKOV-3 s.c. mice, i.v.
Experimental: In addition to OVCAR-3, the COX-1 low expressing SKOV-3 cell line was subcutaneously xenografted to evaluate the specificity of RR11 and 23 (MSA14). RR11 exerted high tumor fluorescence already two hours after injection (n = 2) with similar organ biodistribution as already observed in OVCAR-3 xenografts (TBR = 1.28; Figure 4A and Figure 5A). 23 (MSA14) was evaluated at 6 and 24 h, with a dose of 100 µM and 500 µM in n = 4 SKOV-3 models. […] However, the tumor fluorescence intensity was not sufficient to discriminate between healthy organs and malignant tissue at low exposure times of 100 ms “ex vivo”. The fluorescence signal in COX-1 low-expressing SKOV-3 tumors might be an indication of non-specific compound accumulation.
Female NOD-scid IL2rγ^null (NSG) mice, aged 6 to 25 weeks were maintained under defined floral conditions and no more than five mice were housed in individually ventilated (HEPA-filtered air) cages, kept on a 12 h dark/night schedule at a constant temperature of 21 °C and at 50% relative humidity at the University of Bergen’s animal facility. Observations of body weight and general condition including activity levels, appearance, and food intake were monitored twice weekly, and humane endpoints were defined with the use of score sheets. When indicated, animals were euthanized according to institutional guidelines.
Single cell suspensions of SKOV-3 and OVCAR-3 ovarian cancer cells, cultured as previously described, were obtained by washing the adherent cells with PBS and detached with trypsin-EDTA for 3–5 min at 37 °C. For subcutaneous injection (s.c.), cells were resuspended in an ice-cold mixture of 100 µL per insulin syringe (3/10-cc with 30 g needle) comprising 50 μL saline, 25 µL medium, and 25 µL Matrigel (cat# 08-774-391, Corning Inc®, Fisher Scientific, Waltham, MA, USA). SKOV-3 and OVCAR-3 subcutaneous xenograft models were established through lateral flank injection of 5 × 10^6 cells and 1 × 10^6 cells, respectively, under 3.5% sevoflurane inhalation anesthesia (cat# 29960 SevoFlo, Zoetis, Louvain-la-Neuve, Belgium). Mice were imaged with RR11 and MSA14 when the caliper measurements reached 200–500 mm^3 (Volume = (height × width × length × π)/6).
“In vivo” and “ex vivo” FLI was performed with both COX-1 targeting compounds, the reference compound RR11 and the novel 23 (MSA14), at different concentrations and time points. Prior to FLI, mice were shaved to avoid autofluorescence background signal. The desired concentration (100 µM, 500 µM) of the compound stock solutions in DMSO were freshly diluted with PBS, before 100 µL was injected intravenously into the tail vein. FLI was performed with the IVIS Spectrum In Vivo Imaging System with a λabs 640 ± 15 nm bandpass filter (BP), λem 680 ± 10 nm BP for RR11, and λabs 745 ± 15 nm BP, λem 820 ± 10 nm BP for 23 (MSA14), 0.5–24 h after small molecule administration. All scans were acquired with epi-illumination and auto exposure. Regions of interest (ROI) were manually gated around the tumor, organs, or the whole ventral and lateral positioned mouse and calculated using the Living image software (Perkin Elmer). The ROI of the muscle at the flank region was used to calculate the tumor-to-background (TBR) ratios.

[2] = ethanol (10^−4 M), two bands, listed as 23

IC50 (COX-2) | COX-2 % inhib. (COX-2; at 50 µM compound final concentration) | Stokes Shift ([1]; ethanol (10^−5 M)) | λabs ([1]; ethanol (10^−5 M)) | λem ([1]; ethanol (10^−5 M)) | COX-2 inhibitory activity (in words) (COX-2) | COX-2 inhibitory activity (in words) (COX-2; listed as 23) | λabs [1, 2] | λem [1, 2] | SMILES | tumor-to-background ratio (TBR) (SKOV-3 xenograft tumors; two hours after injection) | average TBR (SKOV-3 xenograft tumors; 6 h, 100 µM) | average TBR (SKOV-3 xenograft tumors; 6 h, 500 µM) | average TBR (SKOV-3 xenograft tumors; 24 h, 100 µM) | average TBR (SKOV-3 xenograft tumors; 24 h, 500 µM)
2400 nM | 64% | 62 | 610 ^b nm | 672 ^b nm |  |  |  |  | COc1ccc(-c2noc(CC(=O)NCCCCNc3cc4[o+]c5cc(N(C)C)ccc5nc4c4ccccc34)c2-c2ccc(OC)cc2)cc1.[Cl-] [RR11, N-[4-(9-dimethylimino-9H-benzo[a]phenoxazin-5-ylamino)butyl]-2-(3,4-bis(4-methoxyphenyl)isoxazol-5-yl)acetamide chloride, reference compound] | 1.28 |  |  |  | 
> 50000 nM |  |  |  |  | did not inhibit | almost inactive | 770 nm | 822 nm | CCN1/C(=C/C=C/C=C/C=C/C2=[N+](CCCCCC(=O)NCCCCNC(=O)Cc3onc(-c4ccc(OC)cc4)c3-c3ccc(OC)cc3)c3ccc4ccccc4c3C2(C)C)C(C)(C)c2c1ccc1ccccc21 [23 (MSA14), 3-(6-(4-(2-(3,4-Bis(4-methoxyphenyl)isoxazole-5-yl)acetamido)butyl)amino-6-oxohexyl)-2-[7-(1,3-dihydro-1,1-dimethyl-3-ethyl-2H-benz[e]indolin-2-yl-idene)-1,3,5-heptatrienyl]-1,1-dimethyl-3-(6-carboxilato-hexyl)-1H-benz[e]indolium chloride] |  | 1.23 | 1.49 | 1.96 | 1.5
